# In patent US11639372B1, “Zinc-charged peptides for the treatment of cancer and alzheimer's disease” (priority 2021, dated 2023):
# “And” between values parts separate entries of the source, which are not always exact repeats. Equal values may be shown once. Ends that are not written are not given here.
# Columns and labels:
# [1] = system: HT-29 colon cancer cells; test: apoptotic effect on HT-29 cells of saliva from a human volunteer after oral zinc-charged 4H3; type: cell-based; conditions: for time at which saliva-induced apoptotic activity peaked: human volunteer
# Protocol: It has been shown that the zinc-charged peptide induces apoptosis in various cancer lines. FIGS. 1a, 1b, and 2 show this effect of the zinc-charged peptide on the HT-29 cancer cell line after the zinc-charged peptide was given to a human volunteer. Specifically, 200 mg of zinc-charged 4H3 was orally given to the volunteer in a liquid form. The peptide mixture was an undialyzed sample, such that the zinc-charged 4H3 in the liquid had not yet been separated from the saturated EDTA and free zinc.
# Saliva samples were then collected from the volunteer at 4-, 6-, 8-, 9-, 12- and 17-hours post-ingestion of the zinc-charged 4H3. The saliva samples were then incubated with HT-29 cancer cells for either 14-hours or 24-hours to observe the apoptotic effect. FIG. 1a depicts the percentage of cell shrinkage and death of HT-29 colon cancer cells after incubation for 14- and 24-hours with the human saliva samples containing the zinc-charged 4H3 noted above. As shown, the saliva sample collected 4-hours post-ingestion has little effect on the HT-29 cancer cells. […] The saliva-induced apoptotic activity thus peaked at 9-hours post-ingestion.
# FIGS. 1B-f depicts microscopic slides of the HT-29 cancer cells after being incubated for […] with specific saliva samples. […] FIG. 1d depicts the saliva sample taken from the volunteer 4 hours after the zinc-charged peptide was ingested. FIGS. 1e and 1f depict saliva samples collected from the volunteer after 10-hour ingestion.
# FIG. 2 depicts a dry, solid sample of the zinc-charged 4H3 that was administered to a human volunteer. Specifically, 150 mg of zinc-charged 4H3 was orally given to the volunteer in a dry solid form. This sample was dialyzed, dried down, and had arginine added as an absorption enhancer such that the dried powder included only the zinc-charged 4H3 and arginine. As with the test shown in FIG. 1a, the saliva samples were taken from the human subject 0-, 3-, 6-, 9-, 12-, 15-, 18-, 21-, and 24-hours post-ingestion. The saliva samples were then incubated with HT-29 cancer cells, and their apoptotic activity recorded after 6-, 10-, 14-, and 24-hours.
# [2] = brain ATP level in mice fed zinc-charged 4H3; type: in vivo; conditions: 1 mg/day for 5 days, oral
# Protocol: (§1) FIGS. 11a-d provide the graphical representations of these observations. FIG. 11a depicts the level of brain ATP in mice that were orally administered zinc-charged 4H3 compared to mice who were given the control. […] FIG. 11b depicts the level of brain Tau protein ATP in mice that were orally administered zinc-charged 4H3 compared to mice who were given the control. In this test, a 2.7 μg protein load was utilized. […] FIG. 11c depicts a retest of FIG. 11b, but with a lower protein load utilized instead. […] Lastly, FIG. 11d depicts the brain P38 MAPK levels in mice that were orally administered zinc-charged 4H3 compared to mice who were given the control. In this test, the mice given the zinc-charged 4H3 saw their brain P38 MAPK levels decrease by 61%.
# [3] = system: cancer-associated fibroblasts; test: cellular ATP level in cancer-associated fibroblasts; type: cell-based; conditions: 2 μM, 2 hours
# Protocol: FIGS. 12a-b display a cell culture study showing the ATP levels and hexokinase II activities of CAFs that were cultured with 2 μM zinc-charged 4H3 for 2 hours. […] These findings confirmed that the zinc-charged peptides caused ATP depletion and hexokinase II inhibition in CAFs.
# [4] = pharmacokinetic study, serum half-life; type: in vivo
# [5] = system: respiratory chain III; test: respiratory chain III activity, mitochondria isolated from HT-29 cells; type: biochemical; conditions: HT-29 colon cancer cells; 5 μM, 2 hours (FIG. 15b)
# Protocol: (§2) For the testing depicted in FIGS. 15a-15d, […] zinc-charged 4H3 was utilized and compared to a control. In this test, mitochondria was isolated from the cell line, and complex I and III activity was tested using a Cayman Mitocheck Complex I & III Activity Kit. […] However, the zinc-charged 4H3 increased the activity of respiratory chain I by 21% but inhibited respiratory chain III by 42% in normal CCD8Co colon cells.
# [6] = system: Tau protein; test: brain Tau protein in mice (ELISA); type: in vivo; conditions: for decrease in brain Tau protein: 1 mg/mouse, 5 days, oral
# Protocol: as §1
# [7] = system: human pancreatic cancer Bx-PC3-G mouse orthotopic model; test: orthotopic pancreatic cancer model in mice; type: in vivo; conditions: oral, 21-day period
# Protocol: In this test, two doses of zinc-charged 4H3 and a control of only the vehicle were orally administered to mice with orthotopic pancreatic cancer. The zinc-charged 4H3 was administered in a “low dose” of 0.5 mg per mouse and a “high dose” of 1.0 mg per mouse.
# [8] = system: respiratory chain I; test: respiratory chain I activity, mitochondria isolated from HT-29 cells; type: biochemical; conditions: HT-29 colon cancer cells; 5 μM, 2 hours (FIG. 15a)
# Protocol: as §2
# [9] = system: glutaminase; test: glutaminase activity in HT-29 cell lysate; type: cell-based; conditions: HT-29, 2 μM, 30-90 minutes
# Source text: FIGS. 16a-b depict the zinc-charged peptides inhibiting glutaminase activity in HT-29 cancer cells. Glutaminase is another important enzyme responsible for the synthesis of ATP in mitochondria. […] The inhibition of the enzyme glutaminase, along with the inhibition of respiratory chains in cancer cells explain the depletion of ATP in cancer cells shown in FIG. 5.
# [10] = system: P38 MAPK; test: brain P38 MAPK level in mice; type: in vivo; conditions: 1 mg/day for 5 days, oral
# Protocol: as §1
# [11] = system: HT-29 cancer cells; test: tissue distribution: mouse tissue homogenates incubated with HT-29 cells, percentage of cells under apoptosis; type: cell-based; conditions: mice, five days administration
# Protocol: These observations were confirmed by studying the tissue distribution of the zinc-charged 4H3 in mice after five days administration, as shown in FIG. 3. For these tests, tissue homogenates were taken from the mice five days after receiving the zinc-charged 4H3, then prepared and incubated with HT-29 cancer cells for various times, followed by the determination of the percentage of cell under apoptosis.
# [12] = system: respiratory chain I; test: respiratory chain I activity, mitochondria of normal colon cells; type: biochemical; conditions: normal CCD8Co colon cells; 5 μM, 2 hours (FIG. 15c)
# Protocol: as §2
# [13] = system: respiratory chain III; test: respiratory chain III activity, mitochondria of normal colon cells; type: biochemical; conditions: normal CCD8Co colon cells; 5 μM, 2 hours (FIG. 15d)
# Protocol: as §2
# [14] = glycolysis and ATP in brain and muscle of normal mice fed zinc-charged 4H; type: in vivo; conditions: 0.5 mg per mouse per day, 5 days, oral
# Protocol: To further study this observed phenomena in vivo, normal mice were fed with the zinc-charged 4H for five days, and the glycolysis of normal brain cells were studied. FIG. 9 depicts the results of this study. For this study, two groups of mice having four mice per group were compared, one being the control and the other being fed 0.5 mg of zinc-charged 4H per mouse per day for 5 days orally. After 5 days, brain and muscle tissue was collected, homogenized, and assayed for glycolysis rate.
# In mice fed with 0.5 mg of zinc-charged 4H for 5 days, the brain glycolysis of these mice was enhanced by 44%.
# [15] = target: T1, hexokinase II (Homo sapiens, UniProt P52789); test: subcellular hexokinase II activity in HT-29 cells; type: cell-based; conditions: HT-29, 1 μM, 5 hours
# T1 sequence (P52789 1-917): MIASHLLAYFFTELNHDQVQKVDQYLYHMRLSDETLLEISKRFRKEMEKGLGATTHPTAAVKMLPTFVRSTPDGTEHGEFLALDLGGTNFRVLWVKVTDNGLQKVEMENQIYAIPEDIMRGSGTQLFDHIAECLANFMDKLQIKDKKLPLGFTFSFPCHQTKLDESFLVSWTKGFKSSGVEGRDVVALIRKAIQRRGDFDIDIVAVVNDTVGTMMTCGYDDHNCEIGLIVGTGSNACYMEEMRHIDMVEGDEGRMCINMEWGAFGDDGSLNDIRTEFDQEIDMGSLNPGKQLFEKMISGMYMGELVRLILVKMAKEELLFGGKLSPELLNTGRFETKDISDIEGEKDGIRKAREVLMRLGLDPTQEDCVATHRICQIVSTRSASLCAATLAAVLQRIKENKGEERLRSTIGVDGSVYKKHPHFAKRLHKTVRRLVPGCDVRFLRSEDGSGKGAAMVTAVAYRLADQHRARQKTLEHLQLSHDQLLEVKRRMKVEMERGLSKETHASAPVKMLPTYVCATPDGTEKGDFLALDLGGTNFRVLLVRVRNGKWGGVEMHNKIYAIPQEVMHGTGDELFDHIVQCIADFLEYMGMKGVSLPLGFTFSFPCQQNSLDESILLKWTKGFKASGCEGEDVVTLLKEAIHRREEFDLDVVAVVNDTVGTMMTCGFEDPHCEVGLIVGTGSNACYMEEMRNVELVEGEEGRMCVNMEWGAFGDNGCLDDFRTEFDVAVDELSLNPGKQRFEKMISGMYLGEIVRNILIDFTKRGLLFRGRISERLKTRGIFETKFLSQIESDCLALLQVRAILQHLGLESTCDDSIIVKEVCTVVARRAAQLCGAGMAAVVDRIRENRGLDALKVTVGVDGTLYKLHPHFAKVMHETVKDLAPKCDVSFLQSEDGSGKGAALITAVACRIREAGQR
# Protocol: FIGS. 14-16 depicts the testing results validating that the zinc-charged peptides inhibit each of these three bioenergetic pathways. FIG. 14 depicts the subcellular hexokinase II activity in mitochondria, cytosol, and microsome to determine whether the zinc-charged peptides inhibit the hexokinase II activity in mitochondria. For this test, HT-29 cancer cells were incubated with zinc-charged 4H at 1 μM for 5 hours. After incubation, sub-cellular fractions including cytosol, microsome, and mitochondria were prepared and the hexokinase II activity on these sub-cellular fractions were tested.
# [16] = system: HT-29 colon cancer cells; test: apoptosis in HT-29 cells, combination with chemotherapy drugs; type: cell-based; conditions: zinc-charged 4H 4 μM, 6 hours after 12 hours drug pre-incubation
# Protocol: To test this, HT-29 colon cancer cells were pre-incubated with various chemotherapy drugs at 6 μg per ml for 12 hours, then zinc-charged 4H at 4 μM was added for an additional 6 hours. Most chemotherapy drugs take up to 48 hours to see substantial apoptosis, and as such, the cells were pre-incubated with chemotherapy drugs first. The chemotherapy drugs tested included actinomycin (“A”), carmustine (“C”), docorubicin (“Dox”), genistin (“G”), 5-FU, and Tarceva.
# [17] = target: T1, hexokinase II; test: in vitro hexokinase II assay; type: biochemical
# Protocol: To test confirm that the zinc-charged peptides inhibit hexokinase II resulting in the inhibition of glycolysis, an in vitro hexokinase II assay was performed. FIG. 7 depicts the results of the in vitro hexokinase II assay. In this test, it was observed that hexokinase II was inhibited by zinc-charged 4H in a dose-dependent manner. […] These findings confirm that the zinc-charged peptides inhibit glycolysis at the hexokinase II enzyme level.
# [18] = system: HT-29 colon cancer cells; test: glycolysis (lactate) inhibition in cell lysate, HT-29; type: cell-based
# [19] = system: Calu-1 lung cancer cells; test: glycolysis (lactate) inhibition in cell lysate, Calu-1; type: cell-based
# Protocol: (§3) The zinc-charged peptides ability to inhibit glycolysis in other cancer cell lines, such as lung cancer, compared to their normal counterparts was also tested.
# [20] = system: normal WI38 lung cells; test: glycolysis (lactate) inhibition in cell lysate, WI38; type: cell-based
# Protocol: as §3
# [21] = system: normal colon cell line CCD18Co; test: glycolysis (lactate) inhibition in cell lysate, CCD18Co; type: cell-based
# [22] = system: HT-29 cancer cells; test: biochemical analysis of HT-29 cell lysate (lactate, ATP, G-6-P); type: cell-based
# Protocol: To determine the mechanism of induction of apoptosis to HT-29 cancer cells by the zinc-charged peptides, a low concentration (1 μM) of zinc-charged 4H was incubated with HT-29 cancer cells, followed by biochemical analysis of the cell lysate of the HT-29 cancer cells.
# Furthermore, the decreased lactate was associated with a lower ATP level and a lower Glucose-6-phosphate (G-6-P) level in HT-29 cells.
substance,measurement,setting,value
EYGLFQISNKK [zinc-charged 4H3],time at which saliva-induced apoptotic activity peaked,"[1]; 150 mg oral, dry solid form with arginine",12 h
same,time at which saliva-induced apoptotic activity peaked,"[1]; 200 mg oral, liquid form, undialyzed",9 hours post-ingestion
same,effect of saliva sample on HT-29 cancer cells,"[1]; saliva 4 hours after ingestion, 36 hours incubation",very little effect
same,effect of saliva sample on HT-29 cancer cells,"[1]; saliva after 10-hour ingestion, 36 hours incubation",clear apoptosis activity
same,effect of saliva sample on HT-29 cancer cells,"[1]; saliva collected 4-hours post-ingestion, 14- and 24-hour incubation, 200 mg liquid",little effect
same,effect of saliva sample on HT-29 cancer cells,"[1]; saliva collected 10-hours post-ingestion, 14-hour and 24-hour incubations, 200 mg liquid","cell rounded up, cell shrinkage, and membrane blebbing"
same,increase of brain ATP,[2],89.9% and 89.8%
same,reduction of ATP levels in CAFs,[3],95.6%
same,half-life,[4],8 h
same,inhibition of respiratory chain III,[5],71.2%
same,reduction of Tau protein in the brain,"[6]; 1 mg/day for 5 days, both protein loads",22.4-27.5%
same,decrease in brain Tau protein,[6]; 0.55 μg protein load,22.4%
same,decrease in brain Tau protein,[6]; 2.7 μg protein load,27.5%
same,reduction of mean tumor size,[7]; high dose 1.0 mg per mouse,38.0%
same,reduction of mean tumor size,[7]; low dose 0.5 mg per mouse,28.1%
same,inhibition of respiratory chain I,[8],70.9%
same,amount of glutamate and alpha-ketoglutarate,[9],lower amount
same,glutaminase activity in the cell lysate,[9],significantly lower glutaminase activity
same,reduction of brain P38 MAPK,[10],61%
same,apoptosis activity of tissue homogenate,[11]; colon,did not display any apoptosis activity
same,apoptosis activity of tissue homogenate,[11]; jaw,did not display any apoptosis activity
same,apoptosis activity of tissue homogenate,[11]; lung,did not display any apoptosis activity
same,apoptosis activity of tissue homogenate,[11]; pancreas,contained apoptosis activity
same,increase of activity of respiratory chain I,[12],21%
same,inhibition of respiratory chain III,[13],42%
zinc-charged 4H: peptide E-Y-G-L-F-Q-I-S-N-K-L (SEQ. ID NO. 1) charged with zinc ions by EDTA then zinc acetate treatment (EYGLFQISNKL; also: charged with zinc ions),enhancement of brain glycolysis,[14],44%
same,increase in brain ATP level,[14],31.4%
same,increase of muscle glycolysis,[14],15%
same,inhibition of mitochondria associated hexokinase II activity,[15],53%
same,percentage of apoptosis in HT-29 cells when added to chemotherapy drugs,[16],significantly increased
same,hexokinase II inhibition,[17]; 5 μM,28.6%
same,hexokinase II inhibition,[17]; 10 μM,79.1%
same,hexokinase II inhibition,[17]; 20 μM,94.6%
same,inhibition of glycolysis,[18],up to 34.7%
same,inhibition of glycolysis,[19],11.1%
same,inhibition of glycolysis,[20],0%
same,inhibition of glycolysis,[21],10.5%
same,lactate lower than control cells,"[22]; 1 μM, HT-29 cell lysate",81.4%
same,reduction of intracellular G-6-P level,"[22]; HT-29, after 6 hours of incubation",39.6%
